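48-hour exposure; five concentrations; linearly interpolated endpoints. At the GI50, growth is halved.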 Calls of active or inactive are those of the source. No stated cut-off is given here; in the data, active = GI50 up to about 1.1 µM and inactive = higher.
Assays:
Assay in all cases: NCI tumour cell line growth inhibition, 48 h
SK-MEL-2 = test system: SK-MEL-2
MDA-N = test system: MDA-N
DMS-114 = test system: DMS-114
SF-539 = test system: SF-539
RXF 393 = test system: RXF 393
HCT-116 = test system: HCT-116
SK-MEL-5 = test system: SK-MEL-5
786-0 = test system: 786-0
T47D = test system: T47D
K562 = test system: K562
UACC-257 = test system: UACC-257
BT-549 = test system: BT-549
SF-295 = test system: SF-295
SK-OV-3 = test system: SK-OV-3
SN12C = test system: SN12C
NCI-H23 = test system: NCI-H23
MOLT-4 = test system: MOLT-4
SNB-75 = test system: SNB-75
MDA-MB-231 = test system: MDA-MB-231
Malme-3M = test system: Malme-3M
SNB-19 = test system: SNB-19
DLD-1 = test system: DLD-1
KM-20L2 = test system: KM-20L2
IGROV-1 = test system: IGROV-1
A549 = test system: A549
HOP-18 = test system: HOP-18
OVCAR-8 = test system: OVCAR-8
SF-268 = test system: SF-268
NCI-H522 = test system: NCI-H522
HCC 2998 = test system: HCC 2998
COLO 205 = test system: COLO 205
RPMI-8226 = test system: RPMI-8226
HOP-92 = test system: HOP-92
ACHN = test system: ACHN
A498 = test system: A498
DMS-273 = test system: DMS-273
DU-145 = test system: DU-145
SK-MEL-28 = test system: SK-MEL-28
SW-620 = test system: SW-620
LXFL 529 = test system: LXFL 529
UO-31 = test system: UO-31
NCI-H460 = test system: NCI-H460
OVCAR-3 = test system: OVCAR-3
TK-10 = test system: TK-10
SR = test system: SR
OVCAR-4 = test system: OVCAR-4
Hs-578T = test system: Hs-578T
HT-29 = test system: HT-29
NCI/ADR-RES = test system: NCI/ADR-RES
EKVX = test system: EKVX
LOX IMVI = test system: LOX IMVI
CAKI-1 = test system: CAKI-1
M14 = test system: M14
RXF 631 = test system: RXF 631
XF498 = test system: XF498
M19-MEL = test system: M19-MEL
NCI-H226 = test system: NCI-H226
PC-3 = test system: PC-3
U-251 = test system: U-251
SNB-78 = test system: SNB-78
OVCAR-5 = test system: OVCAR-5
UACC-62 = test system: UACC-62
CCRF-CEM = test system: CCRF-CEM
HOP-62 = test system: HOP-62
KM12 = test system: KM12
HCT-15 = test system: HCT-15
MDA-MB-435 = test system: MDA-MB-435
MCF7 = test system: MCF7
HL-60 = test system: HL-60

SMILES: O=[N+]([O-])c1ccc(C2=Nn3c(nnc3-c3ccc(Cl)cc3)SC2)o1
- GI50 (SK-MEL-2): 10.5 µM (inactive)
- GI50 (MDA-N): 6.17 µM (inactive)
- GI50 (DMS-114): 4.11 µM (inactive)
- GI50 (SF-539): 8.81 µM (inactive)
- GI50 (RXF 393): 11.5 µM (inactive)
- GI50 (HCT-116): 5.71 µM (inactive)
- GI50 (SK-MEL-5): 10.8 µM (inactive)
- GI50 (786-0): 10 µM (inactive)
- GI50 (T47D): 5.45 µM (inactive)
- GI50 (K562): 2.16 µM (inactive)
- GI50 (UACC-257): 7.38 µM (inactive)
- GI50 (BT-549): 11.4 µM (inactive)
- GI50 (SF-295): 10.9 µM (inactive)
- GI50 (SK-OV-3): 19.3 µM (inactive)
- GI50 (SN12C): 8.38 µM (inactive)
- GI50 (NCI-H23): 7.94 µM (inactive)
- GI50 (MOLT-4): 3.28 µM (inactive)
- GI50 (SNB-75): 11.5 µM (inactive)
- GI50 (MDA-MB-231): 3.24 µM (inactive)
- GI50 (Malme-3M): 6.46 µM (inactive)
- GI50 (SNB-19): 13.3 µM (inactive)
- GI50 (DLD-1): 2.06 µM (inactive)
- GI50 (KM-20L2): 5.94 µM (inactive)
- GI50 (IGROV-1): 6 µM (inactive)
- GI50 (A549): 14.3 µM (inactive)
- GI50 (HOP-18): 19.2 µM (inactive)
- GI50 (OVCAR-8): 9.91 µM (inactive)
- GI50 (SF-268): 10.8 µM (inactive)
- GI50 (NCI-H522): 0.923 µM (active)
- GI50 (HCC 2998): 2.39 µM (inactive)
- GI50 (COLO 205): 2.05 µM (inactive)
- GI50 (RPMI-8226): 2.1 µM (inactive)
- GI50 (HOP-92): 3.29 µM (inactive)
- GI50 (ACHN): 13.9 µM (inactive)
- GI50 (A498): 16.9 µM (inactive)
- GI50 (DMS-273): 14 µM (inactive)
- GI50 (DU-145): 19.2 µM (inactive)
- GI50 (SK-MEL-28): 12.2 µM (inactive)
- GI50 (SW-620): 2.37 µM (inactive)
- GI50 (LXFL 529): 4.67 µM (inactive)
- GI50 (UO-31): 3.5 µM (inactive)
- GI50 (NCI-H460): 6.75 µM (inactive)
- GI50 (OVCAR-3): 3.98 µM (inactive)
- GI50 (TK-10): 14.9 µM (inactive)
- GI50 (SR): 0.394 µM (active)
- GI50 (OVCAR-4): 3.11 µM (inactive)
- GI50 (Hs-578T): 5.83 µM (inactive)
- GI50 (HT-29): 3.22 µM (inactive)
- GI50 (NCI/ADR-RES): 14.3 µM (inactive)
- GI50 (EKVX): 10.7 µM (inactive)
- GI50 (LOX IMVI): 3.93 µM (inactive)
- GI50 (CAKI-1): 9.2 µM (inactive)
- GI50 (M14): 5.46 µM (inactive)
- GI50 (RXF 631): 10.9 µM (inactive)
- GI50 (XF498): 14.3 µM (inactive)
- GI50 (M19-MEL): 2.78 µM (inactive)
- GI50 (NCI-H226): 16.4 µM (inactive)
- GI50 (PC-3): 5.32 µM (inactive)
- GI50 (U-251): 14.1 µM (inactive)
- GI50 (SNB-78): 15.8 µM (inactive)
- GI50 (OVCAR-5): 18.3 µM (inactive)
- GI50 (UACC-62): 11.1 µM (inactive)
- GI50 (CCRF-CEM): 2.65 µM (inactive)
- GI50 (HOP-62): 9.12 µM (inactive)
- GI50 (KM12): 7.93 µM (inactive)
- GI50 (HCT-15): 2.33 µM
- GI50 (MDA-MB-435): 2.08 µM (inactive)
- GI50 (MCF7): 1.88 µM (inactive)
- GI50 (HL-60): 0.989 µM (active)

— ChEMBL document CHEMBL1201862, “PubChem BioAssay data set” (2004)
